Results reported in US8293790B2, “Pharmaceutical compositions comprising DGLA and benzoyl peroxide and methods of use thereof” (Dignity Sciences Limited, priority 2011, dated 2012).
Converted amounts (≈) assume the structure as drawn.

What was measured:
[1] = tested on: P. acnes; test: Agar dilution method: growth of P. acnes and MIC, compounds tested singly; type: cell-based, Propionibacterium acnes; design: key to Growth Index (+++, ++, +, −) Plate 1 / Growth Index (+++, ++, +, −) Plate 2 / Growth Index (+++, ++, +, −) Plate 3 / Growth Index (+++, ++, +, −) Avg: +++: confluent growth (comparable to control); ++: less confluent growth; +: marked reduction in growth to multiple tiny, single colonies; −: no growth present; conditions: for MIC: Cutibacterium acnes, compound alone, MIC = concentration with marked reduction (+) of growth, read-out: MIC (mg/mL) as per P-11-0007 or P-11-0008 Addendum A
Protocol: (§1) Several compounds including fatty acids such as DGLA, 15-OHEPA, and 15-HETrE were tested to determine their capacity to inhibit the growth of P. acnes. In an exemplary method, an agar dilution method was used to determine the minimum inhibitory concentration (MIC) of each tested compound. Briefly, the agar dilution method involved preparing a series of concentrations of each compound (e.g., nicotinamide, benzoyl peroxide, adapalene, metronidazole, DGLA, 15-OHEPA, and 15-HETrE) in a Reinforced Clostridial Agar (RCA) media that facilitates growth of P. acnes under anaerobic conditions. An inoculum of P. acnes was prepared by incubation of P. acnes for approximately seven days at 35-37° C. to achieve a ≧1.0 OD600 inoculum of P. acnes in RCM broth. A portion of this inoculum was then added to the surface of each plate as a 10 μL spot and incubated at 35-37° C. for 72 hours or more. Growth of P. acnes was then observed and compared to control plates in which no compound has been added, and positive inhibition plates prepared with erythromycin. […] The growth of P. acnes in the presence of nicotinamide, benzoyl peroxide, adapalene, metronidazole, DGLA, 15-OHEPA, and 15-HETrE was determined with varying concentrations of the compound (see, Table 2). Next, the MIC was determined as the concentration at which a marked reduction (+) occurs in the appearance of growth on the test plate (as per Clinical and Laboratory Standards Institute M11-A7).

[2] = tested on: P. acnes; test: Agar dilution method: growth of P. acnes and MIC, fatty acid compounds in combination with other compounds; type: cell-based, Propionibacterium acnes; conditions: for MIC (mg/mL) with 0.05 mg/mL 15-HETrE spike / MIC (mg/mL) with 0.1 mg/mL 15-OHEPA spike: itself an inhibitory concentration
Protocol: as §1, with “M11-A7). The compounds tested singly in Example 1 were tested in combination with one another to determine the capacity of the combination to inhibit the growth of P. acnes. In an exemplary method, the MIC was determined for each of the combination as described in Example 1. Briefly, test combinations included DGLA with nicotinamide, benzoyl peroxide, adapalene, or metronidazole; 15-HETrE with nicotinamide, benzoyl peroxide, adapalene, or metronidazole; and 15-OHEPA with nicotinamide, benzoyl peroxide, adapalene, or metronidazole. The tables below show the growth of P. acnes in the presence of 0.4 or 1.0 mg/mL DGLA with varying concentrations of nicotinamide, benzoyl peroxide, adapalene, or metronidazole (Table 3); the growth of P. acnes in the presence of 0.01 or 0.05 mg/mL 15-HETrE with varying concentrations of nicotinamide, benzoyl peroxide, adapalene, or metronidazole (Table 5); and the growth of P. acnes in the presence of 0.5 or 0.1 mg/mL 15-OHEPA with varying concentrations of nicotinamide, benzoyl peroxide, adapalene, or metronidazole (Table 7).” for “M11-A7).”

Row | Structure (SMILES) | MIC [1] [mg/mL] | Growth Index (+++, ++, +, −) Avg ([1]; compound at 0.2 mg/mL in agar) | Growth Index (+++, ++, +, −) Plate 1 ([1]; compound at 0.2 mg/mL in agar) | Growth Index (+++, ++, +, −) Plate 2 ([1]; compound at 0.2 mg/mL in agar) | Growth Index (+++, ++, +, −) Plate 3 ([1]; compound at 0.2 mg/mL in agar) | Growth Index (+++, ++, +, −) Avg ([1]; compound at 0.4 mg/mL in agar) | Growth Index (+++, ++, +, −) Plate 1 ([1]; compound at 0.4 mg/mL in agar) | Growth Index (+++, ++, +, −) Plate 2 ([1]; compound at 0.4 mg/mL in agar) | Growth Index (+++, ++, +, −) Plate 3 ([1]; compound at 0.4 mg/mL in agar) | Growth Index (+++, ++, +, −) Avg ([1]; compound at 0.6 mg/mL in agar) | Growth Index (+++, ++, +, −) Plate 1 ([1]; compound at 0.6 mg/mL in agar) | Growth Index (+++, ++, +, −) Plate 2 ([1]; compound at 0.6 mg/mL in agar) | Growth Index (+++, ++, +, −) Plate 3 ([1]; compound at 0.6 mg/mL in agar) | Growth Index (+++, ++, +, −) Avg ([1]; compound at 0.8 mg/mL in agar) | Growth Index (+++, ++, +, −) Plate 1 ([1]; compound at 0.8 mg/mL in agar) | Growth Index (+++, ++, +, −) Plate 2 ([1]; compound at 0.8 mg/mL in agar) | Growth Index (+++, ++, +, −) Plate 3 ([1]; compound at 0.8 mg/mL in agar) | MIC (mg/mL) with 0.05 mg/mL 15-HETrE spike [2] [mg/mL] | MIC (mg/mL) with 0.1 mg/mL 15-OHEPA spike [2] [mg/mL] | growth of P. acnes in combination with 15-HETrE compared with 15-HETrE alone [2] | also measured
1 | Cc1ncc([N+](=O)[O-])n1CCO [Metronidazole] | > 1 | +++ | +++ | +++ | +++ | +++ | +++ | +++ | +++ | +++ | +++ | +++ | +++ | +++ | +++ | +++ | +++ | <0.2 | <0.2 | did not reduce the growth of P. Acnes below that of 15-HETrE used alone | Growth Index (+++, ++, +, −) Avg ([1]; compound at 1.0 mg/mL in agar): +++; Growth Index (+++, ++, +, −) Plate 1 ([1]; compound at 1.0 mg/mL in agar): +++; Growth Index (+++, ++, +, −) Plate 2 ([1]; compound at 1.0 mg/mL in agar): ++; Growth Index (+++, ++, +, −) Plate 3 ([1]; compound at 1.0 mg/mL in agar): +++; MIC (mg/mL) with 0.01 mg/mL 15-HETrE spike ([2]; 0.01 mg/mL 15-HETrE spike): >1 mg/mL; MIC (mg/mL) with 0.05 mg/mL 15-OHEPA spike ([2]; 0.05 mg/mL 15-OHEPA spike): >1 mg/mL; MIC (mg/mL) with 0.4 mg/mL dGLA spike ([2]; 0.4 mg/mL dGLA spike, dGLA supplied by Sigma, cat# E4504): >1 mg/mL; MIC (mg/mL) with 1.0 mg/mL dGLA spike ([2]; 1.0 mg/mL dGLA spike, dGLA supplied by Cayman, cat# 90230): >1 mg/mL; growth of P. acnes in combination with 15-OHEPA compared with 15-OHEPA alone ([2]; in combination with 15-OHEPA): did not reduce the growth of P. Acnes below that of 15 OHEPA used alone; growth of P. acnes in combination with DGLA compared with DGLA alone ([2]; in combination with DGLA): did not reduce the growth of P. Acnes below that of DGLA used alone
2 | O=C(OOC(=O)c1ccccc1)c1ccccc1 [Benzoyl Peroxide, benzoyl peroxide] | 0.6 to 0.8 (≈ 2.48 to 3.3 mM) | +++ | +++ | +++ | +++ | +++ | +++ | +++ | +++ | ++ | ++ | +++ | ++ | + | + | + | + | <0.2 | <0.2 | did not reduce the growth of P. Acnes below that of 15-HETrE used alone | 
